In general, logP refers to the decadic logarithm of the partition coefficient of the neutral form, usually between octanol and water. Higher therefore signals a more lipophilic compound.

For data set [1], the system named is porcine heart. In words: Intravenous and intra-arterial cardiovascular safety, acute porcine model (Example 3). It is filed as in vivo, pig. On the procedure:
The intravenous (i.v) and intra-arterial (i.a.) safety of a composition of Compound I was shown in a separate study (ref. B145095). In this study the cardiovascular effects of Compound I in a composition with 45 mM NaCl and 0.5 mM CaCl2 was assessed at three dose levels in vivo in an acute porcine model.
The composition was administered either intra-arterially or intravenously into groups of three animals at one of three dose levels (1-fold, 2-fold or 3-fold the standard volume of 2 ml/kg). Each animal also received an equivalent volume of Ringer-Lactate solution as a volume control. CV effects: heart rate (HR), pulse oximetry, electrocardiogram (ECG), aortic pressure (systolic, diastolic and mean), left ventricular end diastolic pressure (LVEDP) were assessed. Ultrasound/echocardiography to assess stroke volume, ejection fraction and cardiac contractility were also evaluated.

For data set [2], the system named is normal pigs. In words: Haemodynamic effects after fast LAD injection in normal pigs (Example 2c). It is filed as in vivo, pig. The conditions noted are these: 40 ml at 5 ml/sec into LAD; Compound I in composition with 45 mM NaCl and 0.5 mM CaCl2. How it is done:
FIG. 6 a) and b) depicts the effect on cardiovascular parameters following injection of 40 ml (5 ml/sec) of Ringer Lactate, Compound I, Visipaque or Iopamidol to the LAD of normal pigs.
In a further study the haemodynamic effects of Compound I in a composition with 45 mM NaCl and 0.5 mM CaCl2 was compared to Visipaque and Iopamidol following selective administration to the LAD of normal pigs with a fast injection rate (5 ml/sec). Ringer Lactate was also studied as a volume and electrolyte “ratio” control. In total 3 pigs were studied, and each CM was administered twice to each pig in random order. The injection rate used was 5 ml/sec with a total injection volume of 40 ml.

Data set [3] is described as follows: Osmolality, vapour pressure osmometer. It counts as physicochemical. The conditions noted are these: 320 mgI/ml. How it is done: The osmolality of Compound I was determined at four different concentrations, 204, 254, 310 and 324 mgI/ml. The osmolality of Compound I at 320 mgI/ml is 136 mOsm/kg.
The osmolality of Compound I was determined at four different concentrations, 204, 254, 310 and 324 mgI/ml. A Vapro 5520 vapour pressure osmometer from Vapro Inc. was used.
The osmolality of Compound I at 320 mgI/ml is lower than that of iodixanol, 136 mOsm/kg vs 210 mOsm/kg at 320 mgI/ml.

Data set [4] relates to human serum albumin (HSA). In words: Binding to human serum albumin, equilibrium dialysis. It counts as in vitro ADME. The conditions noted are these: 25 hours, citrated human plasma. On the procedure:
The binding of Compound I to human serum albumin (HSA) was determined using an equilibrium dialysis method. The binding of Compound I to human serum albumin was determined to be very low, 3.1±1.3%, confirming the negligible interaction of the substance with endogenous proteins.
The binding of Compound I to human serum albumin (HSA) was determined using an equilibrium dialysis method. A stock solution of Compound I (5.0 mg/ml in phosphate buffered saline (PBS)) was mixed with citrate:human plasma in a ratio of 1:9. Equilibration was carried out in a Diachem Dianorm Dialyser against an aqueous phosphate buffered saline using a Diachem 10.17 MW cutoff 10000 membrane and was carried out for 25 hours. Analysis of the solutions was performed using an ICP-AES instrument. In addition, spiked PBS solutions were also equilibrated against citrated human plasma solutions to ensure that the equilibrium had been obtained. The binding of Compound I to human serum albumin was determined to be very low, 3.1±1.3%, confirming the negligible interaction of the substance with endogenous proteins. As a reference, the binding of iodixanol to HSA was determined to 0.4±0.9%.
For orientation: Equilibrium dialysis compares concentrations on both sides of a semipermeable membrane.

Data set [5] is described as follows: Partition coefficient between octanol and water. It is filed as physicochemical. Conditions: n-octanol/water. How it is done:
As a measure of the hydrophilicity of Compound I, the partition coefficient between octanol and water was determined. Water (5 ml) containing the test substance (0.3 mg/ml) was shaken with 15 ml n-octanol until equilibrium had been obtained. The aqueous phase was separated by centrifugation and analyzed by HPLC (HP1100 equipped with a Discovery C18 column, 100×2.1 mm) using UV detection at 244 nm and a flow of 0.3 ml/min. Isocratic HPLC conditions were used, 8% acetonitrile in water (v/v). The octanol phase (12.5 ml) was extracted with water (0.75 ml) until equilibrium had been obtained and the phases were separated by centrifugation. The aqueous phase was analyzed by HPLC using the conditions detailed above. Both octanol and water were pre-saturated with water and octanol, respectively, before the partition coefficient experiments. […] As a comparison, the corresponding logP of iodixanol was determined to −4.02. The reported literature value is −4.05. The increased hydrophilicity of Compound I compared to iodixanol is confirmed by its HPLC behavior.

Take `O=CN(CC(O)CN(C=O)c1c(I)c(C(=O)NCC(O)CO)c(I)c(C(=O)NCC(O)CO)c1I)c1c(I)c(C(=O)NCC(O)CO)c(I)c(C(=O)NCC(O)CO)c1I` (stereo not drawn) [Compound I, 5-[formyl-[3-[formyl-[3,5-bis(2,3-dihydroxypropylcarbamoyl)-2,4,6-triiodophenyl]amino]-2-hydroxypropyl]amino]-N,N′-bis(2,3-dihydroxypropyl)-2,4,6-triiodobenzene-1,3-dicarboxamide]: the “effect on aortic pressure (systolic, diastolic and mean)” value in data set [1] (entire dose range, i.v. or i.a.) is recorded as “little or no effect”. Also, the QT interval result in data set [1] (i.a. or i.v. dosing) is reported as “within the normal range”. In addition, in data set [1] (i.a. or i.v. route, up to 3-fold of 2 ml/kg), the “myocardial performance, overall” value is “no overall changes to myocardial performance”. The “heart rate (HR)” value in data set [1] (i.v. or i.a., 1- to 3-fold of 2 ml/kg) is recorded as “remained within normal ranges”. Further, the LVEDP result in data set [1] (increasing doses, i.v. or i.a.) is listed as “slight increases”. Moreover, in data set [1] (pig, in vivo), the “end diastolic volume (EDV), echocardiography” value is recorded as “only a slight change” and the “rhythm disturbances (ECG)” value is “no Compound I-related rhythm disturbances”. For the same compound, the “oxygen saturation (pulse oximetry)” value in data set [1] (throughout dosing, i.v. or i.a., 1- to 3-fold of 2 ml/kg, composition with 45 mM NaCl and 0.5 mM CaCl2) is recorded as “approximately 98%”. For the same compound, in data set [2], the “increase in LVSP from baseline” value is given as roughly 5%. In addition, in data set [3], the osmolality is on record as 136 mOsm/kg. The “binding to human serum albumin (HSA)” value in data set [4] came out at 3.1±1.3%. This compound returned a logP in data set [5] of -4.28.

(Values after patent publication US8815210B2, “Diagnostic composition comprising plasma cations having superior safety profile” (GE Healthcare AS, priority 2009, dated 2014).)
